Assay results from the NIST ThermoML archive (doi:10.1021/acs.jced.7b00904).
± gives the expanded uncertainty stated by the source.

Test: refractive index (Na D-line) (dimensionless); wn = mass fraction of the nth substance listed
Settings: 101.3 kPa, Liquid, Standard Abbe refractometry

N#C[S-].[K+] [potassium thiocyanate] + O
refractive index
Settings | 293 K | 298 K | 303 K | 308 K | 313 K
w1 = 0.218 | 1.3754 ± 0.00058 | 1.37475 ± 0.00058 | 1.37415 ± 0.00058 | 1.3731 ± 0.00058 | 1.3728 ± 0.00058
w1 = 0.244 | 1.38075 ± 0.00058 | 1.3802 ± 0.00058 | 1.3796 ± 0.00058 | 1.37855 ± 0.00058 | 1.3779 ± 0.00058
w1 = 0.265 | 1.38565 ± 0.00058 | 1.3852 ± 0.00058 | 1.3844 ± 0.00058 | 1.383 ± 0.00058 | 1.38205 ± 0.00058
w1 = 0.291 | 1.39085 ± 0.00058 | 1.3906 ± 0.00058 | 1.3896 ± 0.00058 | 1.38835 ± 0.00058 | 1.3876 ± 0.00058
w1 = 0.321 | 1.39825 ± 0.00058 | 1.39675 ± 0.00058 | 1.396 ± 0.00058 | 1.3949 ± 0.00058 | 1.39375 ± 0.00058
w1 = 0.359 | 1.4061 ± 0.00058 | 1.4054 ± 0.00058 | 1.4046 ± 0.00058 | 1.4033 ± 0.00058 | 1.40235 ± 0.00058
w1 = 0.381 | 1.41155 ± 0.00058 | 1.4105 ± 0.00058 | 1.4097 ± 0.00059 | 1.4079 ± 0.00059 | 1.40725 ± 0.00058
w1 = 0.406 | 1.41705 ± 0.00058 | 1.41615 ± 0.00059 | 1.4147 ± 0.00059 | 1.4139 ± 0.00058 | 1.41305 ± 0.00059
w1 = 0.42 | 1.41995 ± 0.00058 | 1.41945 ± 0.00059 | 1.4183 ± 0.00059 | 1.41675 ± 0.00059 | 1.41585 ± 0.00058
w1 = 0.435 | 1.42345 ± 0.00059 | 1.423 ± 0.00059 | 1.422 ± 0.00059 | 1.4199 ± 0.00059 | 1.41875 ± 0.00059
w1 = 0.451 | 1.42755 ± 0.00059 | 1.42705 ± 0.00059 | 1.42585 ± 0.00059 | 1.4241 ± 0.00059 | 1.4229 ± 0.00059
w1 = 0.468 | 1.43175 ± 0.00059 | 1.43085 ± 0.00059 | 1.4295 ± 0.00059 | 1.4281 ± 0.00059 | 1.4272 ± 0.00059
w1 = 0.477 | 1.43375 ± 0.00059 | 1.433 ± 0.00059 | 1.4319 ± 0.00059 | 1.43035 ± 0.00059 | 1.4294 ± 0.00059
w1 = 0.487 | 1.4358 ± 0.00059 | 1.4352 ± 0.00059 | 1.4344 ± 0.00059 | 1.43245 ± 0.00059 | 1.4315 ± 0.00059
w1 = 0.497 | 1.43825 ± 0.00059 | 1.43755 ± 0.00059 | 1.43665 ± 0.00059 | 1.4347 ± 0.00059 | 1.43375 ± 0.00059
w1 = 0.507 | 1.441 ± 0.00059 | 1.44045 ± 0.00059 | 1.43855 ± 0.00059 | 1.43715 ± 0.00059 | 1.4362 ± 0.00059
w1 = 0.518 | 1.4437 ± 0.00059 | 1.443 ± 0.00059 | 1.44095 ± 0.00059 | 1.4393 ± 0.00059 | 1.4385 ± 0.00059
w1 = 0.529 | 1.4465 ± 0.00059 | 1.44635 ± 0.00059 | 1.44455 ± 0.00059 | 1.4423 ± 0.00059 | 1.44175 ± 0.00059
w1 = 0.54 | 1.4493 ± 0.00059 | 1.44905 ± 0.00059 | 1.44675 ± 0.00059 | 1.4451 ± 0.00059 | 1.44415 ± 0.00059
w1 = 0.553 | 1.4521 ± 0.00059 | 1.45205 ± 0.00059 | 1.4499 ± 0.0006 | 1.4473 ± 0.00059 | 1.44725 ± 0.00059
w1 = 0.565 | 1.45545 ± 0.00059 | 1.45505 ± 0.00059 | 1.4534 ± 0.00059 | 1.45115 ± 0.00059 | 1.45065 ± 0.00059
w1 = 0.579 | 1.45915 ± 0.00059 | 1.4587 ± 0.00059 | 1.4569 ± 0.0006 | 1.45455 ± 0.00059 | 1.4536 ± 0.00059
w1 = 0.584 | 1.46045 ± 0.00059 | 1.46015 ± 0.00059 | 1.4584 ± 0.0006 | 1.4559 ± 0.00059 | 1.4554 ± 0.00059
w1 = 0.59 | 1.46215 ± 0.00059 | 1.4614 ± 0.00059 | 1.4599 ± 0.0006 | 1.4579 ± 0.0006 | 1.45645 ± 0.00059
w1 = 0.595 | 1.4635 ± 0.00059 | 1.46305 ± 0.00059 | 1.46155 ± 0.0006 | 1.4595 ± 0.00059 | 1.4587 ± 0.00059
w1 = 0.601 | 1.46515 ± 0.00059 | 1.46505 ± 0.00059 | 1.4633 ± 0.0006 | 1.46085 ± 0.0006 | 1.4596 ± 0.00059
w1 = 0.607 | 1.4672 ± 0.00059 | 1.46635 ± 0.00059 | 1.465 ± 0.0006 | 1.46265 ± 0.00059 | 1.462 ± 0.00059
w1 = 0.613 | 1.4681 ± 0.00059 | 1.46775 ± 0.00059 | 1.4663 ± 0.0006 | 1.46415 ± 0.0006 | 1.46305 ± 0.00059
w1 = 0.62 | 1.4694 ± 0.00059 | 1.4693 ± 0.00059 | 1.4682 ± 0.00059 | 1.46645 ± 0.0006 | 1.46495 ± 0.00059
w1 = 0.626 | 1.47155 ± 0.00059 | 1.47145 ± 0.00059 | 1.46985 ± 0.0006 | 1.46845 ± 0.00059 | 1.46715 ± 0.0006
w1 = 0.632 | 1.4733 ± 0.00059 | 1.47285 ± 0.00059 | 1.4721 ± 0.0006 | 1.4698 ± 0.0006 | 1.4689 ± 0.00059
w1 = 0.639 | 1.47505 ± 0.00059 | 1.4747 ± 0.00059 | 1.47385 ± 0.00059 | 1.47195 ± 0.0006 | 1.4704 ± 0.00059
w1 = 0.646 | 1.4771 ± 0.00059 | 1.47675 ± 0.00059 | 1.4757 ± 0.0006 | 1.47355 ± 0.0006 | 1.4724 ± 0.0006
w1 = 0.652 | 1.478 ± 0.00059 | 1.47805 ± 0.00059 | 1.4773 ± 0.00059 | 1.4761 ± 0.0006 | 1.4745 ± 0.0006
w1 = 0.659 | 1.4809 ± 0.00059 | 1.4805 ± 0.00059 | 1.4795 ± 0.00059 | 1.4784 ± 0.0006 | 1.47655 ± 0.0006
w1 = 0.667 | 1.48275 ± 0.00059 | 1.4826 ± 0.00059 | 1.4813 ± 0.0006 | 1.48045 ± 0.0006 | 1.47875 ± 0.0006
w1 = 0.674 | 1.48485 ± 0.0006 | 1.4846 ± 0.0006 | 1.4835 ± 0.0006 | 1.48215 ± 0.0006 | 1.48105 ± 0.0006
w1 = 0.681 | 1.4875 ± 0.00059 | 1.48685 ± 0.00059 | 1.48595 ± 0.0006 | 1.48455 ± 0.0006 | 1.483 ± 0.0006
w1 = 0.689 | 1.4891 ± 0.0006 | 1.4885 ± 0.00059 | 1.4876 ± 0.0006 | 1.4865 ± 0.0006 | 1.4855 ± 0.0006
w1 = 0.697 | 1.49135 ± 0.0006 | 1.4907 ± 0.0006 | 1.4896 ± 0.0006 | 1.4884 ± 0.0006 | 1.4871 ± 0.0006
w1 = 0.705 | 1.49315 ± 0.0006 | 1.4922 ± 0.0006 | 1.49135 ± 0.0006 | 1.49005 ± 0.0006 | 1.48924 ± 0.0006
